Results: patent US10597388B2, “Pyridazinone herbicides” (FMC CORPORATION, priority 2014, dated 2020)

Assays:
Assay in all cases: Test E greenhouse herbicide test, pre- and postemergence
Format in all cases: in vivo
[1] = test system: lambsquarters (Chenopodium album); details: Preemergence
In short: (§1)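 Compounds in a non-phytotoxic solvent mixture with surfactant were applied preemergence to seeds in silt loam soil and postemergence to 2-18 cm plants (1- to 4-leaf stage) in peat-based medium. After 14 to 21 d in a greenhouse, injury was rated visually against untreated controls on a 0 (no effect) to 100 (complete control) scale.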

[2] = test system: nutsedge, yellow (yellow nutsedge, Cyperus esculentus); details: Preemergence
In short: as §1

[3] = test system: waterhemp (common waterhemp, Amaranthus rudis)
In short: as §1

[4] = test system: panicum, fall (fall panicum, Panicum dichotomiflorum)
In short: as §1

[5] = test system: nightshade (eastern black nightshade, Solanum ptycanthum); details: Preemergence
In short: as §1

corn (Zea mays) = test system: corn (Zea mays)
In short: as §1

[6] = test system: johnsongrass (Sorghum halepense); details: Preemergence
In short: as §1

[7] = test system: foxtail, giant (giant foxtail, Setaria faberii); details: Preemergence
In short: as §1

[8] = test system: field bindweed (Convolvulus arvensis)
In short: as §1

[9] = test system: momingglory (Ipomoea coccinea); details: Preemergence
In short: as §1

[10] = test system: foxtail, green (green foxtail, Setaria viridis); details: Preemergence
In short: as §1

[11] = test system: velvetleaf (Abutilon theophrasti); details: Preemergence
In short: as §1

[12] = test system: surinam grass (Brachiaria decumbens); details: Preemergence
In short: as §1

[13] = test system: arrowleaf sida (Sida rhombifolia)
In short: as §1

[14] = test system: wild poinsettia (Euphorbia heterophylla)
In short: as §1

[15] = 62 g ai/ha, scale 0 to 100 (0 no effect, 100 complete control)
[16] = 31 g ai/ha, scale 0 to 100, 0 no effect, 100 complete control
[17] = 125 g ai/ha, visual, scale 0 no effect to 100 complete control
[18] = 250 g ai/ha, visual, scale 0 no effect to 100 complete control
[19] = 125 g ai/ha, scale 0 to 100 (0 no effect, 100 complete control)
[20] = 62 g ai/ha, Postemergence, scale 0 to 100 (0 no effect, 100 complete control)
[21] = 62 g ai/ha, Preemergence, scale 0 to 100 (0 no effect, 100 complete control)
[22] = 125 g ai/ha, Postemergence, scale 0 to 100 (0 no effect, 100 complete control)
[23] = 125 g ai/ha, Preemergence, scale 0 to 100 (0 no effect, 100 complete control)
[24] = 250 g ai/ha, Postemergence, scale 0 to 100 (0 no effect, 100 complete control)
[25] = Postemergence, 31 g ai/ha, visual, scale 0 no effect to 100 complete control
[26] = Preemergence, 31 g ai/ha, scale 0 to 100, 0 no effect, 100 complete control
[27] = Preemergence, 250 g ai/ha, visual, scale 0 no effect to 100 complete control
[28] = Preemergence, 125 g ai/ha, visual, scale 0 no effect to 100 complete control

## Cc1nn(C)c(=O)c(-c2ccc(F)c3ccccc23)c1O [Compound 41]
[1]; [15]
  Plant response rating, Lambsquarters: 100
[1]; [16]
  Plant response rating, Lambsquarters: 35
[1]; [17]
  Plant response rating, Lambsquarters: 100
[1]; [18]
  Plant response rating, Lambsquarters: 100
[2]; [15]
  Plant response rating, Nutsedge, Yellow: 65
[2]; [19]
  Plant response rating, Nutsedge, Yellow: 75
[2]; [16]
  Plant response rating, Nutsedge, Yellow: 25
[2]; [18]
  Plant response rating, Nutsedge, Yellow: 85
[3]; [20]
  Plant response rating, Waterhemp: 85
[3]; [21]
  Plant response rating, Waterhemp: 98
[3]; [22]
  Plant response rating, Waterhemp: 90
[3]; [23]
  Plant response rating, Waterhemp: 100
[3]; [24]
  Plant response rating, Waterhemp: 85
[3]; [25]
  Plant response rating, Waterhemp: 75
[3]; [26]
  Plant response rating, Waterhemp: 75
[3]; [27]
  Plant response rating, Waterhemp: 100
[4]; [20]
  Plant response rating, Panicum, Fall: 25
[4]; [21]
  Plant response rating, Panicum, Fall: 90
[4]; [22]
  Plant response rating, Panicum, Fall: 30
[4]; [23]
  Plant response rating, Panicum, Fall: 95
[4]; [24]
  Plant response rating, Panicum, Fall: 50
[4]; [25]
  Plant response rating, Panicum, Fall: 15
[4]; [26]
  Plant response rating, Panicum, Fall: 80
[4]; [27]
  Plant response rating, Panicum, Fall: 98
[5]; [15]
  Plant response rating, Nightshade: 80
[5]; [19]
  Plant response rating, Nightshade: 98
[5]; [16]
  Plant response rating, Nightshade: 25
[5]; [18]
  Plant response rating, Nightshade: 98
Corn (Zea mays); [20]
  Plant response rating, Corn: 0
Corn (Zea mays); [21]
  Plant response rating, Corn: 0
Corn (Zea mays); [22]
  Plant response rating, Corn: 0
Corn (Zea mays); [24]
  Plant response rating, Corn: 5
Corn (Zea mays); [25]
  Plant response rating, Corn: 0
Corn (Zea mays); [26]
  Plant response rating, Corn: 0
Corn (Zea mays); [28]
  Plant response rating, Corn: 0
Corn (Zea mays); [27]
  Plant response rating, Corn: 25
[6]; [15]
  Plant response rating, Johnsongrass: 0
[6]; [16]
  Plant response rating, Johnsongrass: 0
[6]; [17]
  Plant response rating, Johnsongrass: 0
[6]; [18]
  Plant response rating, Johnsongrass: 25
[7]; [15]
  Plant response rating, Foxtail, Giant: 65
[7]; [16]
  Plant response rating, Foxtail, Giant: 30
[7]; [17]
  Plant response rating, Foxtail, Giant: 70
[7]; [18]
  Plant response rating, Foxtail, Giant: 90
[8]; [20]
  Plant response rating, Field Bindweed: 90
[8]; [21]
  Plant response rating, Field Bindweed: 70
[8]; [22]
  Plant response rating, Field Bindweed: 85
[8]; [24]
  Plant response rating, Field Bindweed: 95
[8]; [25]
  Plant response rating, Field Bindweed: 80
[8]; [26]
  Plant response rating, Field Bindweed: 30
[8]; [28]
  Plant response rating, Field Bindweed: 75
[8]; [27]
  Plant response rating, Field Bindweed: 90
[9]; [15]
  Plant response rating, Morningglory: 50
[9]; [19]
  Plant response rating, Morningglory: 90
[9]; [16]
  Plant response rating, Morningglory: 30
[9]; [18]
  Plant response rating, Morningglory: 95
[10]; [15]
  Plant response rating, Foxtail, Green: 25
[10]; [16]
  Plant response rating, Foxtail, Green: 20
[10]; [17]
  Plant response rating, Foxtail, Green: 50
[10]; [18]
  Plant response rating, Foxtail, Green: 75
[11]; [15]
  Plant response rating, Velvetleaf: 85
[11]; [19]
  Plant response rating, Velvetleaf: 95
[11]; [16]
  Plant response rating, Velvetleaf: 20
[11]; [18]
  Plant response rating, Velvetleaf: 100
[12]; [15]
  Plant response rating, Surinam Grass: 75
[12]; [19]
  Plant response rating, Surinam Grass: 75
[12]; [16]
  Plant response rating, Surinam Grass: 10
[12]; [18]
  Plant response rating, Surinam Grass: 95
[13]; [20]
  Plant response rating, Arrowleaf Sida: 90
[13]; [21]
  Plant response rating, Arrowleaf Sida: 50
[13]; [22]
  Plant response rating, Arrowleaf Sida: 95
[13]; [24]
  Plant response rating, Arrowleaf Sida: 90
[13]; [25]
  Plant response rating, Arrowleaf Sida: 85
[13]; [26]
  Plant response rating, Arrowleaf Sida: 20
[13]; [28]
  Plant response rating, Arrowleaf Sida: 98
[13]; [27]
  Plant response rating, Arrowleaf Sida: 100
[14]; [21]
  Plant response rating, Poinsettia, Wild: 40
[14]; [23]
  Plant response rating, Poinsettia, Wild: 40
[14]; [26]
  Plant response rating, Poinsettia, Wild: 15
[14]; [27]
  Plant response rating, Poinsettia, Wild: 65

## CCc1sc2ccc(C)cc2c1-c1c(O)c(C)nn(C)c1=O [Compound 47]
[1]; [15]
  Plant response rating, Lambsquarters: 100
[1]; [16]
  Plant response rating, Lambsquarters: 100
[1]; [17]
  Plant response rating, Lambsquarters: 100
[1]; [18]
  Plant response rating, Lambsquarters: 100
[2]; [19]
  Plant response rating, Nutsedge, Yellow: 30
[2]; [16]
  Plant response rating, Nutsedge, Yellow: 0
[2]; [18]
  Plant response rating, Nutsedge, Yellow: 35
[3]; [20]
  Plant response rating, Waterhemp: 80
[3]; [21]
  Plant response rating, Waterhemp: 90
[3]; [22]
  Plant response rating, Waterhemp: 85
[3]; [23]
  Plant response rating, Waterhemp: 90
[3]; [24]
  Plant response rating, Waterhemp: 100
[3]; [25]
  Plant response rating, Waterhemp: 75
[3]; [26]
  Plant response rating, Waterhemp: 50
[3]; [27]
  Plant response rating, Waterhemp: 100
[4]; [20]
  Plant response rating, Panicum, Fall: 55
[4]; [21]
  Plant response rating, Panicum, Fall: 50
[4]; [22]
  Plant response rating, Panicum, Fall: 55
[4]; [23]
  Plant response rating, Panicum, Fall: 80
[4]; [24]
  Plant response rating, Panicum, Fall: 70
[4]; [25]
  Plant response rating, Panicum, Fall: 40
[4]; [26]
  Plant response rating, Panicum, Fall: 50
[4]; [27]
  Plant response rating, Panicum, Fall: 95
[5]; [15]
  Plant response rating, Nightshade: 98
[5]; [19]
  Plant response rating, Nightshade: 100
[5]; [16]
  Plant response rating, Nightshade: 80
[5]; [18]
  Plant response rating, Nightshade: 100
Corn (Zea mays); [20]
  Plant response rating, Corn: 5
Corn (Zea mays); [21]
  Plant response rating, Corn: 0
Corn (Zea mays); [22]
  Plant response rating, Corn: 5
Corn (Zea mays); [24]
  Plant response rating, Corn: 20
Corn (Zea mays); [25]
  Plant response rating, Corn: 0
Corn (Zea mays); [26]
  Plant response rating, Corn: 0
Corn (Zea mays); [28]
  Plant response rating, Corn: 0
Corn (Zea mays); [27]
  Plant response rating, Corn: 0
[6]; [15]
  Plant response rating, Johnsongrass: 0
[6]; [16]
  Plant response rating, Johnsongrass: 0
[6]; [17]
  Plant response rating, Johnsongrass: 0
[6]; [18]
  Plant response rating, Johnsongrass: 20
[7]; [15]
  Plant response rating, Foxtail, Giant: 0
[7]; [16]
  Plant response rating, Foxtail, Giant: 0
[7]; [17]
  Plant response rating, Foxtail, Giant: 40
[7]; [18]
  Plant response rating, Foxtail, Giant: 80
[8]; [20]
  Plant response rating, Field Bindweed: 75
[8]; [21]
  Plant response rating, Field Bindweed: 50
[8]; [22]
  Plant response rating, Field Bindweed: 85
[8]; [24]
  Plant response rating, Field Bindweed: 90
[8]; [25]
  Plant response rating, Field Bindweed: 70
[8]; [26]
  Plant response rating, Field Bindweed: 50
[8]; [28]
  Plant response rating, Field Bindweed: 90
[8]; [27]
  Plant response rating, Field Bindweed: 100
[9]; [15]
  Plant response rating, Morningglory: 75
[9]; [19]
  Plant response rating, Morningglory: 100
[9]; [16]
  Plant response rating, Morningglory: 25
[9]; [18]
  Plant response rating, Morningglory: 100
[10]; [15]
  Plant response rating, Foxtail, Green: 20
[10]; [16]
  Plant response rating, Foxtail, Green: 0
[10]; [17]
  Plant response rating, Foxtail, Green: 30
[10]; [18]
  Plant response rating, Foxtail, Green: 70
[11]; [19]
  Plant response rating, Velvetleaf: 75
[11]; [16]
  Plant response rating, Velvetleaf: 0
[11]; [18]
  Plant response rating, Velvetleaf: 100
[12]; [15]
  Plant response rating, Surinam Grass: 0
[12]; [19]
  Plant response rating, Surinam Grass: 35
[12]; [16]
  Plant response rating, Surinam Grass: 0
[12]; [18]
  Plant response rating, Surinam Grass: 35
[13]; [20]
  Plant response rating, Arrowleaf Sida: 50
[13]; [21]
  Plant response rating, Arrowleaf Sida: 0
[13]; [22]
  Plant response rating, Arrowleaf Sida: 60
[13]; [24]
  Plant response rating, Arrowleaf Sida: 60
[13]; [25]
  Plant response rating, Arrowleaf Sida: 40
[13]; [26]
  Plant response rating, Arrowleaf Sida: 0
[13]; [28]
  Plant response rating, Arrowleaf Sida: 75
[13]; [27]
  Plant response rating, Arrowleaf Sida: 90
[14]; [20]
  Plant response rating, Poinsettia, Wild: 15
[14]; [21]
  Plant response rating, Poinsettia, Wild: 0
[14]; [22]
  Plant response rating, Poinsettia, Wild: 25
[14]; [23]
  Plant response rating, Poinsettia, Wild: 0
[14]; [24]
  Plant response rating, Poinsettia, Wild: 30
[14]; [25]
  Plant response rating, Poinsettia, Wild: 10
[14]; [26]
  Plant response rating, Poinsettia, Wild: 0
[14]; [27]
  Plant response rating, Poinsettia, Wild: 20
